The values that follow come from US5750702A (priority 1996, dated 1998).

Molecules are shown by their SMILES.

The target of one assay is GABAa receptor. Nature of the assay: GABAa receptor binding assay (displacement of 3H-RO15-1788 [3H-Flumazenil], rat cortical tissue). The note with it: Table 2, 0.5 nM 3H-RO15-1788, 30 min at 4° C., nonspecific binding with diazepam. On the procedure: The pharmaceutical utility of compounds of this invention are indicated by the following assay for GABAa receptor binding activity.
Assays are carried out as described in Thomas and Tallman (J. Bio. Chem. 156: 9838-9842 J. Neurosci. 3: 433-440, 1983). Rat cortical tissue is dissected and homogenized in 25 volumes (w/v) of 0.05M Tris HCl buffer (pH 7.4 at 4° C.). The tissue homogenate is centrifuged in the cold (4°) at 20,000×g for 20'. The supernatant is decanted and the pellet is rehomogenized in the same volume of buffer and again centrifuged at 20,000×g. The supernatant is decanted and the pellet is frozen at -20° C. overnight. The pellet is then thawed and rehomogenized in 25 volume (original wt/vol) of buffer and the procedure is carried out twice. The pellet is finally resuspended in 50 volumes (w/vol of 0.05M Tris HCl buffer (pH 7.4 at […]).
Incubations contain […] of tissue homogenate, […] of radioligand 0.5 nM (^3 H-RO15-1788 [^3 H-Flumazenil] specific activity 80 Ci/mmol), drug or blocker and buffer to a total volume of […]. Incubations are carried for 30 min at 4° C. then are rapidly filtered through GFB filters to separate free and bound ligand. Filters are washed twice with fresh 0.05M Tris HCl buffer (pH 7.4 at 4° C.) and counted in a liquid scintillation counter. 1.0 mM diazepam is added to some tubes to determine nonspecific binding. Data are collected in triplicate determinations, averaged and % inhibition of total specific binding is calculated. Total Specific Binding=Total-Nonspecific. In some cases, the amounts of unlabeled drugs is varied and total displacement curves of binding are carried out. Data are converted to Ki values.
On to `COc1ccc(NC(=O)c2c[nH]c3c2C(=O)CCC3)cc1` [Compound 1, N-(4-methoxyphenyl)-4-oxo-4,5,6,7-tetrahydro-1H-indole-3-carboxamide], for which the Ki is 4 nM.
As to `COc1ccc(NC(=O)c2c[nH]c3cccc(O)c23)c(F)c1` [Compound 2, N-(2-fluoro-4-methoxyphenyl)-4-hydroxy-1H-indole-3-carboxamide], the Ki is 430 nM.
`COc1ccc(NC(=O)c2c[nH]c3c2C(=O)CCC3)c(F)c1` [Compound 6, N-(2-Fluoro-4-methoxyphenyl)-4-oxo-4,5,6,7-tetrahydro-1H-indole-3-carboxamide] had a Ki of 1 nM.
As to `COc1ccc(NC(=O)c2c[nH]c3cccc(OC)c23)cc1` [Compound 8, N-(4-Methoxyphenyl)-4-methoxy-1H-indole-3-carboxamide], the affinity corresponds to a Ki of 25 nM.
The same measure, in the same setting: as for `CC(=O)Nc1ccc(NC(=O)c2c[nH]c3c2C(=O)CCC3)cc1` [Compound 12, N-(4-Acetamidophenyl)-4-oxo-4,5,6,7-tetrahydro-1H-indole-3-carboxamide], the figure is 28 nM.
Still for that read-out and setting: as for `COc1ccc(NC(=O)c2c[nH]c3cccc(OCc4ccccc4)c23)c(F)c1` [Compound 14, N-(2-Fluoro-4-methoxyphenyl)-4-benzyloxy-1H-indole-3-carboxamide], the figure is 133 nM.

The same assay, now with this note: Table 3, 0.5 nM 3H-RO15-1788, 30 min at 4° C., nonspecific binding with diazepam.
For the compound `CC(C)Oc1ccc(NC(=O)c2c[nH]c3c2C(=O)CCC3)cc1` [Compound 22, N-(4-Isopropoxyphenyl)-4-oxo-4,5,6,7-tetrahydro-1H-indole-3-carboxamide], the Ki was 53 nM.
Still for that read-out and setting: as for `COc1ccc(NC(=O)c2c[nH]c3c2C(=O)CCC3)cc1F` [Compound 26, N-(3-Fluoro-4-methoxyphenyl)-4-oxo-4,5,6,7-tetrahydro-1H-indole-3-carboxamide], the figure is 3 nM; as for `COc1ccc(NC(=O)c2c[nH]c3c2C(=O)C(C)(C)CC3)c(F)c1` [Compound 30, N-(2-Fluoro-4-methoxyphenyl)-4-oxo-5,5-dimethyl-4,5,6,7-tetrahydro-1H-indole-3-carboxamide], 10 nM; as for `O=C(Nc1ccccc1)c1c[nH]c2c1C(=O)CCC2` [Compound 35, N-Phenyl-4-oxo-4,5,6,7-tetrahydro-1H-indole-3-carboxamide], 2 nM.
With `O=C(Nc1ccccc1F)c1c[nH]c2c1C(=O)CCC2` [Compound 46, N-(2-Fluorophenyl)-4-oxo-4,5,6,7-tetrahydro-1H-indole-3-carboxamide], the Ki came out at 3 nM.
The same measure, in the same setting: to `O=C(Nc1ccccc1O)c1c[nH]c2c1C(=O)CCC2` [Compound 62, N-(2-Hydroxyphenyl)-4-oxo-4,5,6,7-tetrahydro-1H-indole-3-carboxamide] belongs 0.8 nM; to `Cc1ccc(NC(=O)c2c[nH]c3c2C(=O)CCC3)c(F)c1` [Compound 72, N-(2-Fluoro-4-methylphenyl)-4-oxo-4,5,6,7-tetrahydro-1H-indole-3-carboxamide], 26 nM; to `CNc1ccc(NC(=O)c2c[nH]c3c2C(=O)CCC3)cc1` [Compound 74, N-[4-(Methylamino)phenyl]-4-oxo-4,5,6,7-tetrahydro-1H-indole-3-carboxamide], 18 nM.
In turn, `CC1(C)CCc2[nH]cc(C(=O)Nc3ccccc3)c2C1=O` [Compound 80, N-Phenyl-4-oxo-5,5-dimethyl-4,5,6,7-tetrahydro-1H-indole-3-carboxamide] had a Ki of 31 nM.
The same measure, in the same setting: as for `CC1(C)CCc2[nH]cc(C(=O)Nc3ccccc3F)c2C1=O` [Compound 81, N-(2-Fluorophenyl)-4-oxo-5,5-dimethyl-4,5,6,7-tetrahydro-1H-indole-3-carboxamide], the figure is 14 nM.
`CC1(C)CCc2[nH]cc(C(=O)Nc3ccc(O)cc3)c2C1=O` [Compound 86, N-(4-Hydroxyphenyl)-4-oxo-5,5-dimethyl-4,5,6,7-tetrahydro-1H-indole-3-carboxamide] returned a Ki of 2 nM.
`O=C(Nc1ccccc1F)c1c[nH]c2c1C(=O)CCCC2` [Compound 93, N-(2-Fluorophenyl)-4-oxo-1,4,5,6,7,8-hexahydro-cyclohepta[b]pyrrole-3-carboxamide] returned a Ki of 6 nM.
Compound `COc1cccc(NC(=O)c2c[nH]c3c2C(=O)CCCC3)c1` [Compound 96, N-(3-Methoxyphenyl)-4-oxo-1,4,5,6,7,8-hexahydro-cyclohepta[b]pyrrole-3-carboxamide] came in with a Ki of 29 nM.
Same read-out and setting: as for `CCOc1ccc(NC(=O)c2c[nH]c3c2C(=O)CCCC3)c(F)c1` [Compound 102, N-(2-Fluoro-4-ethoxyphenyl)-4-oxo-1,4,5,6,7,8-hexahydro-cyclohepta[b]pyrrole-3-carboxamide], the figure is 37 nM.
